Data on 7 molecules can be found in ChEMBL document CHEMBL4414547, “Discovery of a novel 2,5-dihydroxycinnamic acid-based 5-lipoxygenase inhibitor that induces apoptosis and may impair autophagic flux in RCC4 renal cancer cells” (Eur J Med Chem, 2019).

The source made the active and inactive calls. No cut-off for these calls is given here. Bounds are passed on as bounds.

Experiment [1] concerns the target T1, Polyunsaturated fatty acid 5-lipoxygenase (Homo sapiens) (UniProt P09917).
T1 sequence (whole entry): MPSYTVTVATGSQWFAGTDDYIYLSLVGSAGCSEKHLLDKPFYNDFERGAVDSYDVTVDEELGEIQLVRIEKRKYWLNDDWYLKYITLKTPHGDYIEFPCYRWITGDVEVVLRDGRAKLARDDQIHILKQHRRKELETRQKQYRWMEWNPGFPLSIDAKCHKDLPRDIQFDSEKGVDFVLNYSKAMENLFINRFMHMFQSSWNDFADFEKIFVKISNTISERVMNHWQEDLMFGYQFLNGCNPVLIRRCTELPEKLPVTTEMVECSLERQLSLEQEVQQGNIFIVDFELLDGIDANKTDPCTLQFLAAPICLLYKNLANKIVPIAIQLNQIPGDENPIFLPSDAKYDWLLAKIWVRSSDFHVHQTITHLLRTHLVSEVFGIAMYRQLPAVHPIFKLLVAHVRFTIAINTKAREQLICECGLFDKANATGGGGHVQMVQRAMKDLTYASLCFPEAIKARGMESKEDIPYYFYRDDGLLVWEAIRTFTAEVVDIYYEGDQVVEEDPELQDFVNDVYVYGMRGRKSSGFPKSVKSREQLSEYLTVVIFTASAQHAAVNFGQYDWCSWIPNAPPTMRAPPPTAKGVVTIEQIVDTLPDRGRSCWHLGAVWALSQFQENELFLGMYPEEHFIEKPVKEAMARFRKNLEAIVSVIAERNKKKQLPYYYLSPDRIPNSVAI
The experiment is described as follows: Inhibition of human 5-LO transfected in HEK293 cells coexpressing FLAP assessed as reduction in leukotriene formation at 1 uM using arachidonic acid as substrate preincubated for 5 mins followed by calcium ionophore A23187/arachidonic acid addition and measured after 15 mins by RP-HPLC analysis. The format is cell-based.

The target of experiment [2] is T1, Polyunsaturated fatty acid 5-lipoxygenase (Homo sapiens). The experiment is described as follows: Inhibition of 5-LO in human PMNL cells assessed as reduction in leukotriene formation at 1 uM preincubated for 5 mins followed by thapsigargin stimulation measured after 15 mins by RP-HPLC analysis relative to control. The format is cell-based.
The nature of experiment [3]: Cytotoxicity against VHL-deficient human RCC10 cells assessed as reduction in cell viability incubated for 4 days by XTT assay. The format is functional, cell-based. As to conditions: 96 h. In general terms: Tetrazolium dyes change colour on reduction, which living cells bring about.
The subject of experiment [4] is RCC4. The experiment is described as follows: Cytotoxicity against VHL-deficient human RCC4 cells assessed as reduction in cell viability incubated for 4 days by XTT assay. It counts as functional, cell-based. As to conditions: RCC4, 96 h.
Experiment [5] relates to RCC4/VHL. The experiment is described as follows: Cytotoxicity against VHL-positive human RCC4/VHL cells assessed as reduction in cell viability incubated for 4 days by XTT assay. The format is functional, cell-based. As to conditions: 96 h.
The test system of experiment [6] is 786-0. The experiment is described as follows: Cytotoxicity against VHL-deficient human 786-0 cells assessed as reduction in cell viability incubated for 4 days by XTT assay. The conditions noted are these: 786-0, 96 h. It counts as functional, cell-based.
Experiment [7] is described as follows: Cytotoxicity against VHL-positive human RCC10 cells assessed as reduction in cell viability incubated for 4 days by XTT assay. As to conditions: 96 h. It counts as functional, cell-based.
Experiment [8] in a line: Selectivity ratio of IC50 for VHL-positive human RCC4/VHL cells to IC50 for VHL-deficient human RCC4 cells. The format is functional.
For experiment [9], the system named is 786-0. The experiment is described as follows: Cytotoxicity against VHL-positive human 786-0 cells assessed as reduction in cell viability incubated for 4 days by XTT assay. The format is functional, cell-based. The conditions noted are these: 786-0, 96 h.
Experiment [10] can be described thus: Antioxidant activity assessed as DPPH radical scavenging activity incubated for 30 mins under dark condition. The format is functional.
For experiment [11], the target named is T1, Polyunsaturated fatty acid 5-lipoxygenase (Homo sapiens). The experiment is described as follows: Potency index, ratio of CAPE IC50 to compound IC50 for inhibition of 5-LO in human PMNL cells assessed as reduction in leukotriene formation preincubated for 5 mins followed by thapsigargin stimulation measured after 15 mins by RP-HPLC analysis. The format is cell-based.

The target is the same in experiment [12]. The experiment is described as follows: Potency index, ratio of Zileuton IC50 to compound IC50 for inhibition of 5-LO in human PMNL cells assessed as reduction in leukotriene formation preincubated for 5 mins followed by thapsigargin stimulation measured after 15 mins by RP-HPLC analysis. The format is cell-based.
Experiment [13] deals with T2, Polyunsaturated fatty acid 5-lipoxygenase (Homo sapiens, UniProt P09917).
T2 sequence (P09917 whole entry): T1 sequence (whole entry)
The experiment is described as follows: Inhibition of 5-LO in human PMNL cells assessed as reduction in leukotriene formation preincubated for 5 mins followed by thapsigargin stimulation measured after 15 mins by RP-HPLC analysis. It counts as cell-based.

Experiment [14] relates to RCC4/VHL. Briefly: Induction of autophagy in human RCC4/VHL cells assessed as increase in conversion of LC3B1 to LC3B2 expression at 1.25 uM incubated for 24 hrs by Western blot analysis. It counts as functional, cell-based.
In experiment [15] the test system is RCC4. Briefly: Induction of cellular phenotype changes in VHL-deficient human RCC4 cells at 1.25 uM incubated for 24 hrs by inverted microscopic analysis. The format is functional, cell-based.
Experiment [16] relates to RCC4. The experiment is described as follows: Induction of autophagy in VHL-deficient human RCC4 cells assessed as increase in conversion of LC3B1 to LC3B2 expression at 1.25 uM incubated for 24 hrs by Western blot analysis. It counts as functional, cell-based. For orientation: Immunoblotting shows a protein as a band on a membrane.
In experiment [17] the test system is RCC4/VHL. The experiment is described as follows: Induction of apoptosis in human RCC4/VHL cells assessed as cleavage of pro-caspase 3 at 1.25 uM incubated for 24 hrs by Western blot analysis. It counts as functional, cell-based.
For experiment [18], the system named is RCC4. Briefly: Inhibition of autophagic flux in VHL-deficient human RCC4 cells assessed as increase in p62 expression at 1.25 uM incubated for 24 hrs by Western blot analysis. It counts as functional, cell-based.
The test system of experiment [19] is RCC4. The experiment is described as follows: Induction of DNA damage in VHL-deficient human RCC4 cells assessed as induction of p53 expression at 1.25 uM incubated for 24 hrs by Western blot analysis. The format is functional, cell-based.
Experiment [20] relates to RCC4/VHL. The experiment is described as follows: Induction of cellular phenotype changes in human RCC4/VHL cells at 1.25 uM incubated for 24 hrs by inverted microscopic analysis. It counts as functional, cell-based.
The test system of experiment [21] is RCC4. Briefly: Induction of apoptosis in VHL-deficient human RCC4 cells assessed as cleavage of pro-caspase 3 at 1.25 uM incubated for 24 hrs by Western blot analysis. The format is functional, cell-based.
The test system of experiment [22] is RCC4/VHL. The experiment is described as follows: Inhibition of autophagic flux in human RCC4/VHL cells assessed as increase in p62 expression at 1.25 uM incubated for 24 hrs by Western blot analysis. It counts as functional, cell-based.
For experiment [23], the system named is RCC4/VHL. Briefly: Induction of DNA damage in human RCC4/VHL cells assessed as induction of p53 expression at 1.25 uM incubated for 24 hrs by Western blot analysis. The format is functional, cell-based.

As a reminder, the inhibition is the drop in the measured response relative to a control, in per cent. In general, IC50 refers to the concentration that inhibits the measured activity by half. With `O=C(/C=C/c1ccc(O)c(O)c1)OCCc1ccccc1` [CAFFEIC ACID PHENETHYL ESTER], the inhibition entry in [1] and in experiment [2] was “Active” in each case. Also, the IC50 is 19.8 µM in experiment [3]; 14 µM in the experiment with RCC4 [4]; 29.1 µM in the experiment on RCC4/VHL [5]; 26.8 µM in the experiment on 786-0 [6]; 12.6 µM in experiment [7]; 43.8 µM with 786-0 [9]. Besides, the IC50 in [10] came to 18.2 µM. Besides, the “Ratio IC50” value in experiment [8] is on record as 2.1.

On to `O=C(OCCc1ccccc1)c1cc(O)ccc1O`, for which the inhibition entry in experiment [1] is “inactive”. Also, the IC50 is 14.8 µM in [3]; 42.8 µM in the experiment with RCC4 [4]; > 100 µM in the experiment with RCC4/VHL [5]; > 100 µM in the experiment with 786-0 [6]; 3.9 µM in [7]; > 100 µM in the experiment on 786-0 [9]. In experiment [10], the IC50 was found to be 17.3 µM.

On to `CC(c1cc2ccccc2s1)N(O)C(N)=O` (configuration not stated) [ZILEUTON], for which the inhibition result in [1] and in experiment [2] was “Active” throughout. Also, the 50% inhibitory concentration (IC50) in experiment [10] was > 100 µM.

Turning to `O=C(/C=C/c1cc(O)ccc1O)CCc1ccccc1`, in experiment [1], the inhibition entry was “Active”. The inhibition in [2] is > 50%. Moreover, the results for the Ratio IC50 in [11] and in [12] were 1.8 and 4, respectively. Besides, the IC50 in experiment [3] was 9.2 µM; in the experiment on RCC4 [4] it was 9.9 µM; in the experiment on RCC4/VHL [5], 12.3 µM; in experiment [13], 0.53 µM; with 786-0 [6], 20.5 µM; in experiment [7], 5.1 µM. Also, the IC50 came out at 19 µM with 786-0 [9] and 15 µM in [10].

Take `Cc1cccc(Nc2nc(-c3ccncc3)cs2)c1`: the result in the experiment with RCC4/VHL [14] and in the experiment on RCC4 [16] was Active. Further, the outcome in the experiment with RCC4 [15], in the experiment on RCC4/VHL [17], with RCC4 [19], in the experiment on RCC4/VHL [20], in the experiment with RCC4 [21] and with RCC4/VHL [23] was inactive. The inhibition result in the experiment on RCC4 [18] and in the experiment with RCC4/VHL [22] was “Active” throughout. In addition, the IC50 in experiment [3] stood at 8.6 µM; in the experiment on RCC4 [4] it was 1.2 µM; in the experiment on RCC4/VHL [5], 5.3 µM; in the experiment with 786-0 [6], 5.7 µM; in [7], 12.6 µM; in the experiment with 786-0 [9], 6.9 µM. Moreover, the “Ratio IC50” value in [8] came out at 4.4.

Turning to `O=C(/C=C/c1cc(O)ccc1O)OCCCc1ccccc1`, the inhibition result in experiment [1] is “Active”.

For `O=C1O[C@H]([C@@H](O)CO)C(O)=C1O` [ASCORBIC ACID], the IC50 in [10] was found to be 13.9 µM.
